Legend:
HCC1937 cells [1] = assay: Competition assay of radiotracer uptake; format: cell-based, Human; settings: 1:2 serial dilution starting at 1µM; Fig. 11
Description: Human breast carcinoma cells (HCC1937, ACC513) were purchased from the German Collection of Microorganisms and Cell Cultures (DSMZ GmbH, Braunschweig, Germany) and cultured in Roswell Park Memorial Institute (RPMI) 1640 medium supplemented with 16 % fetal calf serum (FCS), 100 U/ml penicillin and 100 µg/ml streptomycin at 37°C under humid 5 % CO2 atmosphere. Absence of mycoplasma infection was confirmed by PCR analysis in monthly intervals. […] After 30 min of incubation at 37°C, the cells were washed by vacuum filtration of medium through the plate (2×100 µl followed by 2×200 µl), the filters were transferred into tubes using a commercial punch kit (MAMP09608, Merck) and measured in a gamma counter (Wizard 2, Perkin-Elmer, Waltham, MA, USA). Experiments were performed in triplicates and the uptake was quantified as percent of added activity.

[2] = Serum stability analysis in human serum; format: in vitro ADME; settings: over a time course of 240 minutes; Fig 7 B
HCC1937 cells [3] = assay: In vitro radiotracer uptake; format: cell-based, Human
Description: Human breast carcinoma cells (HCC1937, ACC513) were purchased from the German Collection of Microorganisms and Cell Cultures (DSMZ GmbH, Braunschweig, Germany) and cultured in Roswell Park Memorial Institute (RPMI) 1640 medium supplemented with 16 % fetal calf serum (FCS), 100 U/ml penicillin and 100 µg/ml streptomycin at 37°C under humid 5 % CO2 atmosphere. Absence of mycoplasma infection was confirmed by PCR analysis in monthly intervals.
After 30 min of incubation at 37°C, the cells were washed by vacuum filtration of medium through the plate (2×100 µl followed by 2×200 µl), the filters were transferred into tubes using a commercial punch kit (MAMP09608, Merck) and measured in a gamma counter (Wizard 2, Perkin-Elmer, Waltham, MA, USA). Experiments were performed in triplicates and the uptake was quantified as percent of added activity.

HCC1937 xenograft = assay: PET imaging and ex vivo biodistribution in xenograft-bearing mice
Description: All animal experiments were performed according to the German animal welfare act and approved by the local authorities (Regierungsprasidium Tübingen, R3/18). Animals were housed in individually ventilated cages (IVCs, 5 mice per cage) with bedding and enrichment, and food and water was provided ad libitum. Animals were kept under isoflurane anesthetic (1.5 % in pure oxygen, 1.5 l/min) during the experiments. 1×10^7 cells in 1:1 ice-cold Matrigel (Thermo Scientific) / PBS were injected subcutaneously in the right shoulder area of 7 week-old female NOD.CB17-Prkdc^scid/J mice (n = 5). […] The mice underwent a second, 10 min static PET scan 2 h post-injection (p.i.). Mice were sacrificed by cervical dislocation, the collected organs were weighed and the tissue uptake was determined by gamma-counting (WIZARD2, PerkinElmer). PET image reconstruction and correlation with MR images was performed with Inveon Acquisition Workplace and Inveon Research Workplace, respectively, using a user-defined dynamic framing and an ordered subset expectation maximization (OSEM3D) algorithm. Regions of interest (ROIs) were drawn according to the acquired MR images and co-registered with the PET data to obtain time-activity curves (TACs).
Statistical analyses were performed with GraphPad Prism 9 using non-parametric t-tests and are represented as mean value ± standard deviation. Blood half-life was calculated using a two-phase decay fit. P-values < 0.05 were considered statistically significant according to the software (*: p < 0.05, **: p < 0.01, ***: p < 0.001, ****: p < 0.0001).

[4] = Serum stability analysis in mouse serum; format: in vitro ADME; settings: over a time course of 240 minutes; Fig 7 B

Structure (SMILES) | blocking of the [^18F]talazoparib signal compared to olaparib (HCC1937 cells [1]) | Stability in human serum [2] | uptake in HCC1937 cells (HCC1937 cells [3]; 30 min incubation at 37°C, Fig. 7A) | uptake blocked by excess olaparib and talazoparib (HCC1937 cells [3]; blocking with olaparib or talazoparib, final concentration 25 µM) | absolute xenograft uptake (HCC1937 xenograft; biodistribution analysis 2.5 h p.i., n = 5) | calculated blood half-life (HCC1937 xenograft; blood TAC, two-phase decay fit) | uptake in the brain tissue (HCC1937 xenograft; mouse, in vivo) | Stability in mouse serum [4]
Cn1ncnc1[C@H]1c2n[nH]c(=O)c3cc(F)cc(c23)N[C@@H]1c1ccc(F)cc1 [talazoparib, (8S,9R)-5-Fluoro-8-(4-fluorophenyl)-2,7,8,9-tetrahydro-9-(1-methyl-1H-1,2,4-triazol-5-yl)-3H-pyrido[4,3,2-de]phthalazin-3-one] | blocked the signal more effective | – | – | – | – | – | – | –
Cn1ncnc1[C@H]1c2n[nH]c(=O)c3cc(F)cc(c23)N[C@@H]1c1ccc([18F])cc1 [[^18F] talazoparib, (8S,9R)-5-Fluoro-8-(4-^18fluorophenyl)-2,7,8,9-tetrahydro-9-(1-methyl-1H-1,2,4-triazol-5-yl)-3H-pyrido[4,3,2-de]phthalazin-3-one] | – | no radiometabolite was detected | high uptake | blockable to baseline | 3.7 ± 0.71 %ID/g | 3.3 min | very low uptake | no radiometabolite was detected

Reference: patent EP4088745A1, “COMPOUND FOR THE DIAGNOSIS OF CANCER” (Eberhard Karls Universität Tübingen Medizinische Fakultät, priority 2021, dated 2022)
